Results from patent publication US10087187B2, “Imidazopyridazine derivatives as PI3KB inhibitors” (Janssen Pharmaceutica NV, priority 2014, dated 2018).

Key:
[1] = system: Akt phosphorylated at Thr308 in PC-3 cells; assay: Cellular assay: phosphorylation of Akt (Thr308) in PC-3 cells, MSD ELISA; assay type: cell-based; details: Homo sapiens, PC-3, 1 h, 60 min incubation with compound, read-out: IC50 pAkt_Thr308
In short: (§1)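 PC-3 cells cultured 24 h in DMEM/10% FCS were exposed to compound for 60 min at 37° C, with 0.3% DMSO. Lysates were analysed by MSD electrochemiluminescent sandwich ELISA using phospho-Ser473 or phospho-Thr308 capture and anti-total Akt detection antibodies. IC50 was derived by nonlinear sigmoidal fitting of % inhibition over five concentrations.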

[2] = system: Akt phosphorylated at Ser473 in PC-3 cells; assay: Cellular assay: phosphorylation of Akt (Ser473) in PC-3 cells, MSD ELISA; assay type: cell-based; details: Homo sapiens, PC-3, 1 h, 60 min incubation with compound, read-out: IC50 pAkt_S473
In short: as §1

[3] = target: PIK3Cδ_h (Homo sapiens (Human), UniProt O00329); assay: KINOMEscan enzyme binding assay, PIK3Cδ; details: DiscoveRx
Procedure: (§2) Enzyme Binding Assays (KINOMEscan®) Kinase enzyme binding affinities of compounds disclosed herein were determined using the KINOMEscan technology performed by DiscoveRx Corporation, San Diego, Calif., USA (www.kinomescan.com). Table A reports the obtained Kd values (nM), with the Kd being the inhibitor binding constant: […]

[4] = target: PIK3Cβ_h (Homo sapiens (Human), UniProt P42338); assay: KINOMEscan enzyme binding assay, PIK3Cβ; details: DiscoveRx
Procedure: as §2

[5] = target: PIK3Cγ_h (Homo sapiens (Human), UniProt P48736); assay: KINOMEscan enzyme binding assay, PIK3Cγ; details: DiscoveRx
Procedure: (§3) Enzyme Binding Assays (KINOMEscan®) Kinase enzyme binding affinities of compounds disclosed herein were determined using the KINOMEscan technology performed by DiscoveRx Corporation, San Diego, Calif., USA (www.kinomescan.com).

[6] = target: PIK3Cα_h (Homo sapiens (Human), UniProt P42336); assay: KINOMEscan enzyme binding assay, PIK3Cα; details: DiscoveRx
Procedure: as §3

[7] = target: MTOR_h (Homo sapiens (Human), UniProt P42345); assay: KINOMEscan enzyme binding assay, MTOR; details: DiscoveRx
Procedure: as §3

Sequence of PIK3Cγ_h (P48736 whole entry): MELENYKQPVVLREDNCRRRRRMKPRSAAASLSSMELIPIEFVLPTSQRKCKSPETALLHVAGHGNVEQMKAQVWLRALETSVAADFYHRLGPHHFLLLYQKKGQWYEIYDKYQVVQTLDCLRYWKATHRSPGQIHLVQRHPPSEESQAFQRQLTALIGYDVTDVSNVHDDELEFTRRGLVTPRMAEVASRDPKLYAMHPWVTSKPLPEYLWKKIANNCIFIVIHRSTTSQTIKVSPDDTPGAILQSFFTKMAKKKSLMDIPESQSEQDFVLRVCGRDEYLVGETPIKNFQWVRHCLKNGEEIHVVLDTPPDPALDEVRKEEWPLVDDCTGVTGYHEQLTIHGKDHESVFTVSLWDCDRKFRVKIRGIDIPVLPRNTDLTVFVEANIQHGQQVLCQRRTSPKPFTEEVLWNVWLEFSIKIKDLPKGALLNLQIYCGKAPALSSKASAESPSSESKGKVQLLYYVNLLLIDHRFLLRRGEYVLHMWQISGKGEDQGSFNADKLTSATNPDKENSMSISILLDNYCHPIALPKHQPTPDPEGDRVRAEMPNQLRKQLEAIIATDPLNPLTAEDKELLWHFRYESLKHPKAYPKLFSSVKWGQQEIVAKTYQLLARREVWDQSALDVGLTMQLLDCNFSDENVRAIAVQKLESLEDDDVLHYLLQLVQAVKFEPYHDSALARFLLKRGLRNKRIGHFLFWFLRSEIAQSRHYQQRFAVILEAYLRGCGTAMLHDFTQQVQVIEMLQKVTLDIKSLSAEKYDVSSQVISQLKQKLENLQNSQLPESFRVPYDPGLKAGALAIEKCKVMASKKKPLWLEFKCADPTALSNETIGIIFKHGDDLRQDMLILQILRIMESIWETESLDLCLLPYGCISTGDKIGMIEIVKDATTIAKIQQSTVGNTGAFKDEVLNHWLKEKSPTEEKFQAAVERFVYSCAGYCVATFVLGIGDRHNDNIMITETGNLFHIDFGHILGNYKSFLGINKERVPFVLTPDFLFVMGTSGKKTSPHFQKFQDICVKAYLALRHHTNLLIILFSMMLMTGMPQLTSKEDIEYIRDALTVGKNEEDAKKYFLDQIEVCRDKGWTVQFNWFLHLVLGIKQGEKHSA
Sequence of PIK3Cβ_h (P42338 whole entry): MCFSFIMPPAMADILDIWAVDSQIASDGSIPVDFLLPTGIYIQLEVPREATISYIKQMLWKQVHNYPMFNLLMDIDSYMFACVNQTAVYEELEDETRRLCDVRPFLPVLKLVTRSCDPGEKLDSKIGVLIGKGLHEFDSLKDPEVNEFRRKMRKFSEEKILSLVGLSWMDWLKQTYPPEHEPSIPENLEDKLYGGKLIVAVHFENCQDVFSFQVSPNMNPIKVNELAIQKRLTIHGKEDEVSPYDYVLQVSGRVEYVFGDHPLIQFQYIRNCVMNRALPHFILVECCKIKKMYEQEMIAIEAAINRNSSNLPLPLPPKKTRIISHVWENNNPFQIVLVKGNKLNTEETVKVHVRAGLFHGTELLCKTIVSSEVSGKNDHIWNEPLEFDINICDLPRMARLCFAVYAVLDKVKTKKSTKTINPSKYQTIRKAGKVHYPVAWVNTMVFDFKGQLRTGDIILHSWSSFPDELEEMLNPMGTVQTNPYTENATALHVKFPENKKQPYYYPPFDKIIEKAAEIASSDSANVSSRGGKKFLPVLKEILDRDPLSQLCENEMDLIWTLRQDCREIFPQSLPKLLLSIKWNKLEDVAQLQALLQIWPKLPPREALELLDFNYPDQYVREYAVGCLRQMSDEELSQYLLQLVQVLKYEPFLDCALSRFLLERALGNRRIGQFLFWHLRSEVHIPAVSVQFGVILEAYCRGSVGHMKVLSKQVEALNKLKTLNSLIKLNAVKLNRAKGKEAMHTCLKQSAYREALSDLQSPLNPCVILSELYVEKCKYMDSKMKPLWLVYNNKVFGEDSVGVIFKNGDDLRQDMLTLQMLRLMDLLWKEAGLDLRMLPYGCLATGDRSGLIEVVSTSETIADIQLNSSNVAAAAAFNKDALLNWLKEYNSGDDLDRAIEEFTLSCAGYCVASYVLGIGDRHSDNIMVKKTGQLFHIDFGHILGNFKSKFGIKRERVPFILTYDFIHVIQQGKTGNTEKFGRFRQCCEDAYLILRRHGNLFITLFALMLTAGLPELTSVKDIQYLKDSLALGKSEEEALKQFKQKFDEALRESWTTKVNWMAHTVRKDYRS
Sequence of PIK3Cα_h (P42336 whole entry): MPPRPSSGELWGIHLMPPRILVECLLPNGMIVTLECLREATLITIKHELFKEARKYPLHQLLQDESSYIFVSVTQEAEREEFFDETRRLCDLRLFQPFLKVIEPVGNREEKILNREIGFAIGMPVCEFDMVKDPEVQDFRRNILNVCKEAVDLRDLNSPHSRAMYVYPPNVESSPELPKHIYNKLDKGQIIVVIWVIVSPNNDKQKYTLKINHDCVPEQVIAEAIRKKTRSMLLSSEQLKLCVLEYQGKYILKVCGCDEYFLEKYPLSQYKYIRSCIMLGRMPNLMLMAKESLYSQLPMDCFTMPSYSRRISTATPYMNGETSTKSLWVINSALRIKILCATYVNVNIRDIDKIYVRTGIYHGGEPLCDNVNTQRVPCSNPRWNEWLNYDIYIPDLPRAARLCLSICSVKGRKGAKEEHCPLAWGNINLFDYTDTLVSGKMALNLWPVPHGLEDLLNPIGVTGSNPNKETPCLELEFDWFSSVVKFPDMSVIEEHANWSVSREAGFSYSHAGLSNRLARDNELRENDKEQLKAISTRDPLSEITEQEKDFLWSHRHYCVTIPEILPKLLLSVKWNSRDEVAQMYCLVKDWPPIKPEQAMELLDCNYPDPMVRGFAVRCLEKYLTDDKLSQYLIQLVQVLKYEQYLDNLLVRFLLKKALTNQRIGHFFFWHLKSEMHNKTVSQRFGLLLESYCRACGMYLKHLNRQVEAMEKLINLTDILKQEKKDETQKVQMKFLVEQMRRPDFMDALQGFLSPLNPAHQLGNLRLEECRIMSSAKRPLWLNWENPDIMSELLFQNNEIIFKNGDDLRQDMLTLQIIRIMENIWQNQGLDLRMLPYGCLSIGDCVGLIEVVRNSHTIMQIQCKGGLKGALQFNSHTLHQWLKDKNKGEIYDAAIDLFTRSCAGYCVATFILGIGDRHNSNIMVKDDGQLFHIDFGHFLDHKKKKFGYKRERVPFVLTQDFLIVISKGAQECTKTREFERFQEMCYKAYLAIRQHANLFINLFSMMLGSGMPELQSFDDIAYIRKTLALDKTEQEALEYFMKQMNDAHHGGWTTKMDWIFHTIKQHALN
Sequence of PIK3Cδ_h (O00329 whole entry): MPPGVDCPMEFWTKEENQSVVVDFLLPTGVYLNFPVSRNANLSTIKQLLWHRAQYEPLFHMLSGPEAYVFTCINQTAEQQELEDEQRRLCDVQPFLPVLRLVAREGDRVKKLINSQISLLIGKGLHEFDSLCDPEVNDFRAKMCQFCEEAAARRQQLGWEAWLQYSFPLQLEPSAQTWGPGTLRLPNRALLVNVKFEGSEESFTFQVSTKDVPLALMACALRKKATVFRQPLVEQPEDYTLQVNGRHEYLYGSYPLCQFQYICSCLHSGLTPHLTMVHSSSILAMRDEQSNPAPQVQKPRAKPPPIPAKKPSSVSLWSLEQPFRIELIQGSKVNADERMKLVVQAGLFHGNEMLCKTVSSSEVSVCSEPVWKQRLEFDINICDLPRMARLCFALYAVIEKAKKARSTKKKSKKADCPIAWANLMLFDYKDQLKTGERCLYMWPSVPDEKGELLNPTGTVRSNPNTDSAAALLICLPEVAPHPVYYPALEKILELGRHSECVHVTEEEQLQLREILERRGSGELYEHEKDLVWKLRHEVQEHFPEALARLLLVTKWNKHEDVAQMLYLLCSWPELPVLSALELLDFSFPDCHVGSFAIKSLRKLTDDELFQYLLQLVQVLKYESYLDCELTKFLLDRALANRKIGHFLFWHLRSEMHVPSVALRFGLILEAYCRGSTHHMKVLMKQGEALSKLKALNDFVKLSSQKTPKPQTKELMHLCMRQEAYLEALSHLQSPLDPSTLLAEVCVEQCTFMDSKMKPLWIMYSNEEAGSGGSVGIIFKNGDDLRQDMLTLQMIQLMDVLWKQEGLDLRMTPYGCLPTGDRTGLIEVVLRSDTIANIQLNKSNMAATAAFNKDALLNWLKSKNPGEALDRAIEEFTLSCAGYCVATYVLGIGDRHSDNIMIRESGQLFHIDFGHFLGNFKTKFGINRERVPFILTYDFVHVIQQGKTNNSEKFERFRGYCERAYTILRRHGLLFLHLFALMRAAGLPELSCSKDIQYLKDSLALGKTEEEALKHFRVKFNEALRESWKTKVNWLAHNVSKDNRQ

Row | SMILES | IC50 [1] [µM] | IC50 [2] [µM] | Kd [3] [µM] | Kd [4] [µM] | Kd [5] [µM] | Kd [6] [µM] | Kd [7] [µM]
1 | Cc1c(F)cccc1Cc1c(CO)nc2c(N)cc(N3CCOCC3)nn12 [Compound 93] | 0.12 | 0.174 | 0.166 | 0.0027 | 3.89 | > 30.2 | 1.91
2 | Cc1nc2c(N)cc(N3CCOCC3)nn2c1Cc1cccc(F)c1CO [Compound 94] | 0.417 | > 0.513 | 1.41 | 0.018 | 10.5 | 16.6 | 5.75
3 | CCc1c(F)cccc1Cc1c(CO)nc2c(N)cc(N3CCOCC3)nn12 [Compound 99] | 0.2 | 0.257 | 0.832 | 0.0083 | 3.31 | 10.5 | 1.62
4 | CC(CO)NCc1c(F)cccc1Cc1c(CO)nc2c(N)cc(N3CCOCC3)nn12 (stereo not drawn) [Compound 102] | > 0.513 | > 0.513 | 1.51 | 0.141 | > 30.2 | > 30.2 | > 30.2
5 | Cc1nc2c(N)cc(N3CCOCC3)nn2c1Cc1cccc(F)c1CNC(C)CO (stereo not drawn) [Compound 103] | > 0.382 | > 0.423 | 1 | 0.074 | 31.6 | > 30.2 | 24.5
6 | Cc1nc2c(N)cc(N3CCOCC3)nn2c1Cc1cccc(F)c1C1CCNCC1 [Compound 106] | 0.129 | 0.174 | 0.372 | 0.0005 | 5.01 | 2.75 | > 30.2
7 | Nc1cc(N2CCOCC2)nn2c(Cc3cccc(F)c3C3CCN(CCO)CC3)c(CO)nc12 [Compound 108] | > 0.513 | > 0.513 | 0.376 | 0.014 | 13.6 | 21.4 | 18.7
8 | Cc1nc2c(N)cc(N3CCOCC3)nn2c1Cc1cccc2c1CN(C(C)C)CC2 [Compound 110] | 0.222 | 0.324 | 2.38 | 0.513 | > 30.2 | > 30.2 | > 30.2

Stronger by IC50 [1], values ahead:

Row | IC50 [1] [µM] | IC50 [2] [µM] | Kd [3] [µM] | Kd [4] [µM] | Kd [5] [µM] | Kd [6] [µM] | Kd [7] [µM] | SMILES
9 | 0.04 | 0.079 | 0.2 | 0.0016 | 3.71 | 11.2 | 0.912 | Cc1c(F)cccc1Cc1c(CNCCO)nc2c(N)cc(N3CCOCC3)nn12 [Compound 97]
10 | 0.029 | 0.078 | 0.138 | 0.0007 | 15.1 | 9.33 | > 30.2 | Nc1cc(N2CCOCC2)nn2c(Cc3cccc(C(F)(F)F)c3C3CCNCC3)c(CO)nc12 [Compound 104]
11 | 0.115 | 0.158 | 0.355 | 0.012 | 8.71 | 11.7 | 11.5 | Cc1nc2c(N)cc(N3CCOCC3)nn2c1Cc1cccc(F)c1C1CCN(CCO)CC1 [Compound 107]
12 | 0.082 | 0.136 | 0.098 | 0.009 | 2.9 | 12.8 | 22.2 | Cc1nc2c(N)cc(N3CCOCC3)nn2c1Cc1cccc2c1CNCC2 [Compound 109]
